In US5783599A, “Methods of treating cancer and viral infections with 5-iodo-6-amino-and 5-iodo-6-nitroso-1 2-benzopyrones” (priority 1996, dated 1998):
“Also recorded” adds a separate entry of the source.

How the values were obtained:
ADPRT [1] = target: T1, ADPRT (Bos taurus, UniProt P18493); conditions: literature; cited from earlier work
ADPRT [2] = target: T1, ADPRT; test: Inhibition of ADPRT / binding to ADPRT (I50, Ki); format: biochemical
Description: Their biological action spectrum is nearly the same as that of 6-ABP, except that their potency is about 10-50 times greater. Such potency is particularly well documented in case of 5-I-6-ABP against malignant cell proliferation in cell cultures. […] This effectivity is 10-20 times higher than 6-ABP.
The 6-amino group of 5-I-6-ABP is rapidly oxidized intracellularly to 5-I-6-NOBP which, by binding to the Zn^2+ -finger domain of ADPRT, destabilizes the tightly chelated Zn^2+ by the oxidation of the thiol groups in the Zn^2+ finger polypeptide, thus ejecting Zn^2+. In this way, 5-I-6-ABP effectively inactivates the ADPR-forming activity of this protein and converts it to a DNA binding protein that reacts with "internal domains" of certain double stranded DNA (Biochemistry, 28:5670 (1989); Biochem. Biophys. Res. Commun., 167:842 (1990)). These DNA domains include abnormally replicating DNA structures in tumorigenic or proliferative cells and in viral DNAs, probably at the integration sites.

[3] = tested on: malignant cell proliferation; test: Malignant cell proliferation / cytostatic activity in cell cultures, overall; format: cell-based; conditions: biological action spectrum, vs 6-ABP
Description: In this study, the following cell lines were used. Cell line CG I, a non-tumorigenic hybrid of HeLa cells with normal human fibroblasts, and its is tumorigenic revertant counterpart, CG1 III, as described in Science, 215:252 (1982). These cells were obtained from UC Irvine. […] HEp-2 human epidermoid carcinoma cells were provided by Dr. L. Aurelian (University of Maryland). E-Ras cells were-obtained from University of Cincinnati and represent an endothelial cell line transfected with pSV2neo plasmid as described in Proc. Natl. Acad. Sci., 76:1373 (1979). This cell line contains several copies of the activated human Ha-ras oncogene.
Cells were seeded to 2 cm^2 wells of Falcon tissue culture plates at a density of 6000±650 cells per well. Inhibitors were added to the seeding suspensions from stock solutions of 100 mM 6-ABP in water or 50 mM 5-1-6-ABP in dimethylsulfoxide (DMSO). […] Growth media were Dulbeccos MEM (lines #1 and 2), and Dulbeccols Modified Eagle's Medium, containing 10% fetal bovine serum and penicillin (100 μg/ml) plus streptomycin (100 μg/ml). After incubation for 72 hours at 37° C. in a 5% CO2 humidified atmosphere, incorporation of [^3 H] deoxyadenosine (ICN, 18 Ci/mmol) into DNA was tested as follows: [^3 H] deoxyadenosine (450,000 dpm in 40 μl) of medium was added per well (each containing 600 μl of medium) and incubation at 37° C. was continued for 1 hour, followed by removal of the medium and rinsing of the wells 3 times with phosphate-buffered saline. Cells were then lysed in 500 μl of 0.06M NaOH and the acid precipitable radioactivity was determined.

T1 sequence (P18493 whole entry): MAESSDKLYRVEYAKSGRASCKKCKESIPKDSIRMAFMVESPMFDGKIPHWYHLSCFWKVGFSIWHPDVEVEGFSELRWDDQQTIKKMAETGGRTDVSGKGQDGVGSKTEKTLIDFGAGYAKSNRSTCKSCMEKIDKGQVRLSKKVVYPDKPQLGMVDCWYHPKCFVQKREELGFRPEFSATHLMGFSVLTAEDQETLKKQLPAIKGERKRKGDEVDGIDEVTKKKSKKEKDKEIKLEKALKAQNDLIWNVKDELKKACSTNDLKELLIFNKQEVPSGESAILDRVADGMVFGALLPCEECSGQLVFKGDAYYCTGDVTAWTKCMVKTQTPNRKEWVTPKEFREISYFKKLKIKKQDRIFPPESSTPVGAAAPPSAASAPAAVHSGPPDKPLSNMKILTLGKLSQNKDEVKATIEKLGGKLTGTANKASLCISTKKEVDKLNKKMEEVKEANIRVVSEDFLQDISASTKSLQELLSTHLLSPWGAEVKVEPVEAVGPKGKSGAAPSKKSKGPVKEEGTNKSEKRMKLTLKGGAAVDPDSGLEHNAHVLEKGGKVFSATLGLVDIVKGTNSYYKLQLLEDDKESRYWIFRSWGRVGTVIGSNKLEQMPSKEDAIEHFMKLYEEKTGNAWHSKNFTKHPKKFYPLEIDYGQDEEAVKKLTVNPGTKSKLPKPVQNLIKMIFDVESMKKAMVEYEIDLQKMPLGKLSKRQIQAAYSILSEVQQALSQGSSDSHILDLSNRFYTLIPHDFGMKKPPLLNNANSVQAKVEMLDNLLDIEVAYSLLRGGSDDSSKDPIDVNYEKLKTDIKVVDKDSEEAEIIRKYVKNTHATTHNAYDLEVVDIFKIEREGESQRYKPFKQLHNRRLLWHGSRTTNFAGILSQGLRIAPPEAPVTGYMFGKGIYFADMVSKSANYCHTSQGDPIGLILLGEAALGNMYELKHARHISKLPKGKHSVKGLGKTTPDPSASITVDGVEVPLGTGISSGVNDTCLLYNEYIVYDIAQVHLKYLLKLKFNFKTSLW

Compound: O=c1ccc2ccccc2o1 [1,2-benzopyrone (coumarin), 1,2-benzopyrone]
- ADPRT ligand (ADPRT [1]): inhibitory ligand

Compound: O=Nc1ccc2oc(=O)ccc2c1I [5-I-6-NOBP, 5-iodo-6-nitroso-1,2-benzopyrone]
- inhibition of / binding to ADPRT (ADPRT [2]): binds with high affinity to zinc-fingers of enzyme ADPRT; also recorded: potent inhibitor of ADPRT
- potency relative to 6-ABP [3]: 10-50 times
